Reference: ChEMBL document CHEMBL1155745, “Constituents of the root bark of Severinia buxifolia collected in Hainan” (2001)
Values after ≈ are worked out from the molar mass of the structure shown. Active and inactive are the calls of the source. No cut-off for these calls is given here.

Columns and labels:
[1] = test system: KB; test: Cytotoxicity against human KB cells; format: functional; settings: for EC50: read-out: ED50 (the source's name)
[2] = test system: COLO 205; test: Cytotoxicity against human COLO205 cells; format: functional; settings: for EC50: read-out: ED50 (the source's name)
[3] = test system: Hep 3B2; test: (§1) Cytotoxicity against human Hep3B cells; format: functional
[4] = as §1; format: functional, Hep 3B2; settings: read-out: ED50 (the source's name)

| SMILES | ED50 [1] | EC50 [2] | ED50 [3] | EC50 [1] | ED50 [2] | EC50 [4] |
| --- | --- | --- | --- | --- | --- | --- |
| COc1c(/C=C/C(C)C)c(O)c2c(=O)c3cccc(O)c3[nH]c2c1CC=C(C)C | inactive | 1.2 µg/mL (≈ 3.05 µM) | inactive |  |  |  |
| COc1c(O)cc(O)c2c(=O)c3cccc(O)c3n(C)c12 [CITRUSININE-II] |  |  | inactive | 0.82 µg/mL (≈ 2.85 µM) | inactive |  |
| COc1cc(O)c2c(=O)c3cccc(O)c3n(C)c2c1OC [CITRUSININE-I] |  | 6.3 µg/mL (≈ 20.9 µM) |  | 0.09 µg/mL (≈ 0.299 µM) |  | 6.6 µg/mL (≈ 21.9 µM) |
| COc1c(O)ccc2c(=O)c3c(O)cc(O)c(OC)c3n(C)c12 |  |  |  | 0.22 µg/mL (≈ 0.693 µM) | inactive | 5.3 µg/mL (≈ 16.7 µM) |
| CC(C)=CCc1c2c(c3[nH]c4ccccc4c(=O)c3c1O)C=CC(C)(C)O2 [SEVERIFOLINE] |  |  | inactive | 0.09 µg/mL (≈ 0.249 µM) | inactive |  |
| CC(C)=CCc1c2c(c(O)c3c(=O)c4ccccc4[nH]c13)C=CC(C)(C)O2 | inactive | 0.58 µg/mL (≈ 1.6 µM) | inactive |  |  |  |
